Tests used:
[1] = test system: MCF-7 cells; test: proliferation assay of MCF-7 cells; type: cell-based; conditions: for effect on the proliferative response to estradiol: ligand added in the presence of 1 nM estradiol; for ability of the ligand to stimulate the proliferation of MCF-7 cells: ligand alone
Text: Trifluoromethyl group was introduced onto phenylvinyl estradiol either at the ortho, meta, or para positions. These compounds were examined for their ability to stimulate or inhibit estrogen responses in two assay systems. […] The meta- and para-isomers gave substantially different profiles. […] Therefore, the position of the trifluoromethyl group exerted a significant effect on the efficacy of the ligand.

[2] = test system: immature female rat; test: immature female rat uterotrophic growth assay, estrogenic assay; type: in vivo
Description: (§1) These trifluoromethyl substituted compounds were also studied with an immature female rat uterotrophic growth assay; the results are shown in FIGS. 12, 13, and 14. […] Therefore, the agonist responses observed in the in vitro cell proliferation assay were carried over to the intact animal as well. The antiestrogen assay evaluated the ability of the isomers to block the uterotrophic effect induced by 1 nM estradiol. […] Therefore, in both estrogen responsive cells and tissues these new ligands are producing differential responses in affinity and efficacy related to the site of trifluoromethyl substitution on the phenyl ring.

[3] = test system: immature female rat; test: immature female rat uterotrophic growth assay, antiestrogen assay; type: in vivo; conditions: 1 nM estradiol
Description: as §1

SMILES	effect on the proliferative response to estradiol [1]	ability of the ligand to stimulate the proliferation of MCF-7 cells [1]	estrogenic effect (uterotrophic growth) ([2]; 3 nM level)	estrogenic effect (uterotrophic growth) ([2]; 10 and 100 nM)	ability to block the uterotrophic effect induced by estradiol ([3]; isomer at 10 and 100 nM)	ability to block the uterotrophic effect induced by estradiol ([3]; isomer at 100 nM)
CC12CCC3c4ccc(O)cc4CCC3C1CCC2(O)C=Cc1ccccc1C(F)(F)F (stereo not drawn) [Compound 4a, 17α-20E-21-(2-Trifluoromethylphenyl)-19-norpregna-1,3,5(10),20-tetraene-3,17β-diol]	neither an enhancement nor a diminution of the proliferative response	full agonist response comparable to that of estradiol	effect comparable to estradiol	substantial estrogenic effects	enhancement of the estrogenic response	–
CC12CCC3c4ccc(O)cc4CCC3C1CCC2(O)C=Cc1cccc(C(F)(F)F)c1 (stereo not drawn) [Compound 5a, 17α-20E-21-(3-Trifluoromethylphenyl)-19-norpregna-1,3,5(10),20-tetraene-3,17β-diol]	antagonized the effects of estradiol at the same doses	weak proliferative effect at doses greater than 1 nM	–	little or no estrogenic effects	no significant effect on the estradiol response	–
CC12CCC3c4ccc(O)cc4CCC3C1CCC2(O)C=Cc1ccc(C(F)(F)F)cc1 (stereo not drawn) [Compound 6a, 17α-20E-21-(4-Trifluoromethylphenyl)-19-norpregna-1,3,5(10),20-tetraene-3,17β-diol]	decreases in the estradiol effects were observed below 1 nM	did not elicit a proliferative response until a 10 nM dose was employed	–	little or no estrogenic effects	–	reduced the estrogenic response

— US8173628B2, “Steroidal antiestrogens and antiandrogens and uses thereof” (Northeastern University, priority 2000, dated 2012)
